Data set [1] relates to Panc-1 pancreatic cancer cell line. As to the kind of experiment: Cell viability (Cell Titer-Glo) in Panc-1 cells. In kind it is cell-based. Particulars: Homo sapiens, replete media, 48 h incubation, 24 h recovery; for IC50: first value of IC50/IC90; for IC90: second value of IC50/IC90. The protocol:
(§1) Biological activity was assessed in vitro in the following pancreatic cancer and colorectal cancer cell lines. • Pancreatic cancer cell lines • Panc-1: non-metastatic; mutations: KRAS, TP53 • AsPC-1: metastatic; mutations: KRAS, TP53, CDKN2A, MAP2K4 • Colorectal cancer cell lines • LoVo: metastatic; mutations: APC, KRAS, FBXW7, […] • SW620: metastatic; mutations: KRAS, TP53
(§2) Tumor cells were maintained at 37° C. in a humidified 5% CO2 atmosphere in T75 tissue culture flask containing 10 mL of RPMI 1640 (PANC-1), DMEM (AsPC-1), F12K (LoVo) or L15 (SW620), containing 2 mM L-glutamine, 10% fetal bovine serum (FBS) and 1% penicillin and streptomycin. The tumor cells were split at a ratio of 1:5 every 4-5 days by trypsinization and suspended in fresh medium in a new flask. Cells were harvested for experiments at 80-95% confluency.
(§3) PANC-1 cells in RPMI medium with 10% FBS (12,000 cells/well in 96 well plate) were incubated with increasing concentrations (12.5, 25, 50, 100, 150, and 200 µM), of test compound at 37° C. under 5% CO2 for 48 hours. Cells were undergone for another 24 hr recovery, in fresh RPMI media without serum. Cell viability was assessed using the Promega Cell Titer-Glo assay kit, following their protocol. Cell viability was measured based on the amount of ATP produced by the total number of cells present in each well using FLUOSTAR OPTIMA plate reader in the Luminescence mode. Production of ATP in Luminescence unit is directly proportional to the number of live cells. % live cells were calculated and SEM was also calculated as average of 3 replica wells.
For orientation: In ATP-based viability assays light output follows the ATP content of the culture.

Data set [2] deals with LoVo colorectal cancer cell line. As to the kind of experiment: Cell viability (Cell Titer-Glo) in LoVo cells. In kind it is cell-based. Particulars: Homo sapiens, replete media, 48 h incubation, 24 h recovery; for IC50: first value of IC50/IC90; for IC90: second value of IC50/IC90. The protocol: as §1, §2, §3
(§4) Test compounds were screened for activity in AsPC-1 cells and the colon cancer cells using similar procedures but replacing RPMI with the respective media indicated above for the initial 48 hour incubation (i.e., DMEM (AsPC-1), F12K ( LoVo ), or L15 (SW620)), and RPMI was always used for the 24 hour recovery. Cells seeded for AsPc-1 (25,000 cells/well), LoVo (25,000 cells/well) and SW620 (25,000 cells/well) to achieve ~ 50% confluency after 24 hrs of seeding.

Data set [3] concerns AsPC-1 pancreatic cancer cell line. As to the kind of experiment: Cell viability (Cell Titer-Glo) in AsPC-1 cells. In kind it is cell-based. Particulars: Homo sapiens, ASPC1, replete media, 48 h incubation, 24 h recovery; for IC50: first value of IC50/IC90. On the procedure:
as §1, §2, §3, §4

Data set [4] has as its system SW620 colorectal cancer cell line. As to the kind of experiment: Cell viability (Cell Titer-Glo) in SW620 cells. The data set is classed as cell-based. Particulars: Homo sapiens, SW-620, replete media, 48 h incubation, 24 h recovery; for IC50: first value of IC50/IC90. On the procedure:
as §1, §2, §3, §4

For data set [5] the following is noted: after IV dosing; Pardee et al. 2014; cited from earlier work.

For six compounds, IC50, IC90 and half-life results are on record in patent publication US20230348373A1, “DEUTERATED DERIVATIVES OF 6,8-BIS(BENZYLSULFANYL)OCTANOIC ACID” (Rafael Pharmaceuticals, Inc., priority 2019, published 2023).

As a reminder, the IC50 is the concentration at which inhibition is half-maximal. As for `[2H]C([2H])(CC(=O)O)C([2H])([2H])CC(CCSCc1ccccc1)SCc1ccccc1` (centres unmarked) [Compound I-24, 6,8-bis(benzylsulfanyl)-3,3,4,4-tetradeuterio-octanoic acid], the IC50 in data set [1] and in data set [2] was greater than 300 µM throughout.
`[2H]C([2H])(CCC(CCSCc1ccccc1)SCc1ccccc1)CC(=O)O` (centres unmarked) [Compound I-10, 6,8-bis(benzylsulfanyl)-3,3-dideuterio-octanoic acid]: the IC50 in data set [1] and in data set [2] was greater than 300 µM in each case.
By IC90 is commonly meant the concentration at which the effect reaches the 90% level. High values mean weaker potency, low ones greater potency. For the compound `[2H]C(O)(CCC(CCSCc1ccccc1)SCc1ccccc1)CC(N)=O` (centres unmarked) [Compound I-78], the IC90 is 73 µM in data set [1], 65 µM in data set [3] (second value of IC50/IC90), 39 µM in data set [2] and 37 µM in data set [4] (second value of IC50/IC90). For the same compound, the IC50 amounted to 28 µM in data set [3], 26 µM in data set [2] and 28 µM in data set [4].
As for `[2H]C(O)(CCC(CCSCc1ccccc1)SCc1ccccc1)CC(=O)O` (centres unmarked) [Compound I-77], the IC50 in data set [1] is greater than 300 µM; in data set [3], 314 µM; in data set [2], greater than 300 µM; in data set [4] it was greater than 300 µM.
For `[2H]C(O)(CCC(CCSCc1ccccc1)SCc1ccccc1)CC(=O)N1CCNCC1` (centres unmarked) [Compound I-79], in data set [1], the IC50 amounted to 44 µM and the IC90 was 282 µM. In data set [2], this compound returned an IC50 of 181 µM and an IC90 of 254 µM.
The term half-life denotes the time needed for the level to fall by half in the phase considered. Turning to `O=C(O)CCCCC(CCSCc1ccccc1)SCc1ccccc1` (centres unmarked) [CPI-613, 6,8-bis(benzylsulfanyl)octanoic acid], the half-life in data set [5] was 1 to 2 h.
